Data: patent US11628172B2, “Methods of treating chronic lymphocytic leukemia using 2-(2,6-dioxopiperidin-3-yl)-4-((2-fluoro-4-((3-morpholinoazetidin-1-yl)methyl)benzyl)amino)isoindoline-1,3-dione” (Celgene Corporation, priority 2019, dated 2023)

Experiments:
HG3 CLL cell line = assay: Cell proliferation and viability assay (384-well flow cytometry, Annexin V/DRAQ7), HG3; format: cell-based; details: 120 hours
Description: (§1) The following are examples of cell-based assays that can be used to determine the anti-proliferative activity and apoptotic effect of compounds described herein using exemplary CLL cell lines (Table 3). The in vitro growth inhibitory activity of Compound 1 described herein was evaluated using a 384-well flow cytometry assay.
(§2) The cell lines were plated under the conditions shown in Table 3 in 384-well flat bottom plates and incubated with increasing concentrations of compound ranging from 0.00015 to 10 μM or dimethyl sulfoxide (DMSO) control. The final concentration of DMSO was 0.1% (v/v). Following the addition of Compound 1 or DMSO and incubation for 120 hours, cell number and cell death were analyzed by flow cytometry (Attune®, Thermo Fisher) using Annexin V and the live-cell impermeant DNA dye, DRAQ7. […]
(§3) Flow cytometry data analysis was then performed using the Flow Jo_v10 software to determine the number of viable cells (Annexin V and DRAQ7 double negative staining cells) and percentage of apoptotic cells (Annexin V positive cells) for each condition. […] The IC50 (50% inhibitory concentration) and Emax (maximum efficacy achieved) values were then calculated by performing nonlinear regression curve fitting using log (inhibitor) vs. normalized response—variable slope analysis on GraphPad Prism 7.03. […]

[1] = test system: primary CLL cells from patient-derived blood (CD5+CD19+ tumor cells); assay: Compound 1 in combination with obinutuzumab in B-cell CLL patient cells (ex vivo co-culture, flow cytometry, Caspase3); format: cell-based, human; details: single agent (Cpd1 DRC with DMSO, or obinutuzumab alone), 144 h, apoptosis (Caspase 3), DMSO baseline subtracted
Description: Obinutuzumab (GA101) is a humanized, glycoengineered type 2 antibody targeted against CD20. […] The effect of treatment with Compound 1 in combination with obinutuzumab on the proliferation and survival of CLL B cells was assessed utilizing an ex vivo model where primary CLL cells from patient-derived blood were stimulated to proliferate with 10% fetal bovine serum (FBS), 5 ng/mL recombinant human interleukine-4 (rh IL-4), 10 ng/mL recombinant human interleukine-10 (rh IL-10) and co-cultured with fibroblast expressing surface CD154 (CD40L) in a 96 well plate format.
Peripheral blood mononuclear cells (PBMCs) from CLL patients (Table 7) containing 52%-86% of CD5^+CD19^+ tumor cells were cultured at a density of 0.06-0.1×10^6 cells/well on a monolayer of CD154-expressing fibroblasts at a density of 0.09×10^6 cells/well in 96-well plates in RPMI 1640 medium supplemented with 10% FBS, 5 ng/mL rh IL-4 and 10 ng/mL rh IL-10. The cells were treated with vehicle control (0.1% DMSO) or increasing concentrations of Compound 1 ranging from 0.0001 to 1 μM and GA101 at concentrations ranging from 8 ng/mL to 5 ug/mL across all the different concentrations of Compound 1. After 144 h of treatment with both the agents, flow cytometric analysis was used to determine the number of tumor cells that were viable or apoptotic.
The tumor cell count was assessed by staining the patient PBMCs in each condition with tumor cell surface markers CD5 & CD19 along with Live/Dead fixable dye to exclude the dead cells and followed by intracellular staining for Caspase3 antibody to identify the apoptotic cells and was measured by flow cytometry (Attune NxT, Thermo Fisher). The live tumor cell count for each condition was calculated by normalizing to the precision count beads added to each sample.
The live tumor cell count was then normalized to the DMSO control (considered as 100% viable) to calculate the percentage of viable cells remaining after treatment. The normalized percentage of tumor cells was then represented as a heat map using Graph Pad Prism 8.0.0 to indicate the degree of tumor toxicity for each of the combinations (FIG. 1). Based on the data shown in FIG. 1, synergy/additivity calculations were performed using the HSA and Bliss Independence Model.
For apoptosis analysis, the percentage of apoptosis combining both “early” (Caspase 3 positive and Live-Dead fixable dye negative) and “late” apoptosis (Caspase 3 and Live-Dead fixable dye positive) cell gates subtracting the baseline DMSO value was graphed using GraphPad Prism 8.0.0.0. The Ymax (maximal percentage of apoptosis achieved) values from apoptosis curves were calculated by performing a nonlinear regression curve fitting using log(agonist) vs. normalized response—Variable slope analysis and identifying the maximum value on GraphPad Prism 8.0.0 (Table 8).

Mec1 CLL cell line = assay: Cell proliferation and viability assay (384-well flow cytometry, Annexin V/DRAQ7), Mec1; format: cell-based; details: 120 hours
Description: as §1, §2, §3

EHEB CLL cell line = assay: Cell proliferation and viability assay (384-well flow cytometry, Annexin V/DRAQ7), EHEB; format: cell-based; details: 120 hours
Description: as §1, §2, §3

## O=C1CC[C@H](N2C(=O)c3cccc(NCc4ccc(CN5CC(N6CCOCC6)C5)cc4F)c3C2=O)C(=O)N1 [Compound 1, (S)-2-(2,6-dioxopiperidin-3-yl)-4-((2-fluoro-4-((3-morpholinoazetidin-1-yl)methyl)benzyl)amino)isoindoline-1,3-dione]
HG3 CLL cell line
  % Viable Cells Emax (percentage of tumor cells remaining): 59.58%
[1]; Pt 11
  Ymax of Pt 11 (%): 18.81%
[1]; Pt 12
  Ymax of Pt 12 (%): 19.11%
[1]; Pt 13
  Ymax of Pt 13 (%): 29.40%
[1]; Pt 14
  Ymax of Pt 14 (%): 24.11%
Mec1 CLL cell line
  % Viable Cells Emax (percentage of tumor cells remaining): 83.45%
EHEB CLL cell line
  % Viable Cells Emax (percentage of tumor cells remaining): 28.68%
